According to patent US20250002475A1 (EPICS THERAPEUTICS, priority 2023, published 2025):

Target: T1, recombinant METTL3/METTL14 complex (Homo sapiens, UniProt Q86U44)
T1 construct: purchased Active Motif 311970; host or cells: Sf9 cells
Experiment: METTL3/14 Scintillation Proximity Assay (SPA), RNA methyltransferase activity
Assay type: biochemical
Settings: 5.31 nM METTL3/14 complex, 250 nM RNA substrate, 1 μM 3H-SAM, 90 min; for compounds marked * best of the two separated forms

T1 sequence (Q86U44 whole entry): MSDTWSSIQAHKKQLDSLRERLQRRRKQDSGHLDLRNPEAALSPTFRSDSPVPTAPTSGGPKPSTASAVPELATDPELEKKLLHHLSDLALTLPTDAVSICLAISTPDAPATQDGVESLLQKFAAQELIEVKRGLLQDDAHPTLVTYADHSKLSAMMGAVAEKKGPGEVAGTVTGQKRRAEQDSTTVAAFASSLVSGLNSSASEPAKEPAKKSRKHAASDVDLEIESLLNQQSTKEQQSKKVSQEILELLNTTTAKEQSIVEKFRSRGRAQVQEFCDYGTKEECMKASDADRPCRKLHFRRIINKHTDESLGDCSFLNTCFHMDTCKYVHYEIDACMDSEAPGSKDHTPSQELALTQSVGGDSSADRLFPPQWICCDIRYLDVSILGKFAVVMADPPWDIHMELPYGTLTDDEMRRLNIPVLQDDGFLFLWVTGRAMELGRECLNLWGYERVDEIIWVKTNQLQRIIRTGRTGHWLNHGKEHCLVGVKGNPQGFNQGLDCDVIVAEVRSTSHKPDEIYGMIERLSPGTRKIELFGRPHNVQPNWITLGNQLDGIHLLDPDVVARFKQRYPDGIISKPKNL
T1 sequence (Q9HCE5 whole entry partner): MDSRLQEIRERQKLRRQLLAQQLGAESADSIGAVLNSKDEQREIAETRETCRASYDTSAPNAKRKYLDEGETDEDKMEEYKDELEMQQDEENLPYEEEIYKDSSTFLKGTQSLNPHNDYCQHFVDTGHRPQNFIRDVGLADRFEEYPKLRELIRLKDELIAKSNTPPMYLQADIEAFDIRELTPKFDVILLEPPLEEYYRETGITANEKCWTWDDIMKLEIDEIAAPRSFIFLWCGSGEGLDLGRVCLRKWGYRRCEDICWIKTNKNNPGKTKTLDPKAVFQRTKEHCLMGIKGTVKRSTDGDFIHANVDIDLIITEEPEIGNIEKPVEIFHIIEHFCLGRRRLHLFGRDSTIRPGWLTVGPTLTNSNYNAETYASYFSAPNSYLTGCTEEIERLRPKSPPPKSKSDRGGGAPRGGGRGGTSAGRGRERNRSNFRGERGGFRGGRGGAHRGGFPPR

SMILES	IC50 [nM]
CC(C(=O)Nc1cncc(N2CCCC2)c1)c1ccc(N2CCC[C@@H](NCC3CCC3)C2)cn1 (single isomer, unassigned) [Compound 264]	≤ 50
CC(n1cnc(-c2cncc(N(C)C)c2)c1)n1ccc(N2CCC[C@@H](NCC3CC3)C2)cc1=O (single isomer, unassigned) [Compound 266]	≤ 50
CC(C(=O)Nc1cncc(N2CCCC2)n1)c1ccc(N2CCC[C@@H](NCC3CCC3)C2)cc1 (single isomer, unassigned) [Compound 294]	≤ 50
Cc1cc(N2CCC[C@@H](NCC3CC3)C2)cnc1C(C)n1cc(-c2cncc(C3CC3)c2)nn1 (single isomer, unassigned) [Compound 318]	≤ 50
COc1cncc(C(=O)NCc2ccc(N3CCC[C@@H](NCC4CCC4)C3)nn2)c1 [Compound 004, (R)-N-((6-(3-((cyclobutylmethyl)amino)piperidin-1-yl)pyridazin-3-yl)methyl)-5-methoxynicotinamide]	500 to 3500
COc1cc(C(=O)NCc2ccc(N3CCC[C@@H](NCC4CCC4)C3)nn2)c2cn[nH]c2c1 [Compound 005, (R)-N-((6-(3-((cyclobutylmethyl)amino)piperidin-1-yl)pyridazin-3-yl)methyl)-6-methoxy-1H-indazole-4-carboxamide]	50 to 500
O=C(NCc1ccc(N2CCCC(N3CCC4(CC3)CC4)C2)nn1)c1cc(=O)n2ccccc2n1 (stereo not drawn) [Compound 014, N-((6-(3-(6-azaspiro[2.5]octan-6-yl)piperidin-1-yl)pyridazin-3-yl)methyl)-4-oxo-4H-pyrido[1,2-a]pyrimidine-2-carboxamide]	50 to 500
O=C(NCc1ccc(N2CCC[C@@H](NCC3CC3)C2)nn1)c1cc(=O)n2ccccc2n1 [Compound 016, (R)-N-((6-(3-((cyclopropylmethyl)amino)piperidin-1-yl)pyridazin-3-yl)methyl)-4-oxo-4H-pyrido[1,2-a]pyrimidine-2-carboxamide]	50 to 500
N#Cc1cncc(-c2cn(Cc3ccc(N4CCC[C@@H](NCC5CCC5)C4)nn3)nn2)c1 [Compound 021, (R)-5-(1-((6-(3-((cyclobutylmethyl)amino)piperidin-1-yl)pyridazin-3-yl)methyl)-1H-1,2,3-triazol-4-yl)nicotinonitrile]	50 to 500
O=c1[nH]c(-c2cn(Cc3ccc(N4CCC[C@@H](NCC5CCC5)C4)nn3)nn2)nc2ccccc12 [Compound 029, (R)-2-(1-((6-(3-((cyclobutylmethyl)amino)piperidin-1-yl)pyridazin-3-yl)methyl)-1H-1,2,3-triazol-4-yl)quinazolin-4(3H)-one]	50 to 500
c1cc(N2CCC[C@@H](NCC3CCC3)C2)nnc1Cn1cc(-c2csc3cncn23)nn1 [Compound 034, (R)-N-(cyclobutylmethyl)-1-(6-((4-(imidazo[5,1-b]thiazol-3-yl)-1H-1,2,3-triazol-1-yl)methyl)pyridazin-3-yl)piperidin-3-amine]	≤ 50
COc1cc(-c2cn(Cc3ccc(N4CCCC(N5CC6(CCC6)C5)C4)nn3)nn2)c2cn[nH]c2c1 (stereo not drawn) [Compound 035, 4-(1-((6-(3-(2-azaspiro[3.3]heptan-2-yl)piperidin-1-yl)pyridazin-3-yl)methyl)-1H-1,2,3-triazol-4-yl)-6-methoxy-1H-indazole]	≤ 50
COc1cncc(-c2cn(Cc3ccc(N4C[C@H](NCC5CCC5)CC[C@@H]4C)nn3)nn2)c1 [Compound 038, (3R,6S)-N-(cyclobutylmethyl)-1-(6-((4-(5-methoxypyridin-3-yl)-1H-1,2,3-triazol-1-yl)methyl)pyridazin-3-yl)-6-methylpiperidin-3-amine]	50 to 500
O=c1[nH]c(-c2cn(Cc3ccc(N4CCC[C@@H](NCC5CCC5)C4)nn3)nn2)cc2ccccc12 [Compound 048, (R)-3-(1-((6-(3-((cyclobutylmethyl)amino)piperidin-1-yl)pyridazin-3-yl)methyl)-1H-1,2,3-triazol-4-yl)isoquinolin-1(2H)-one]	≤ 50
COc1cc(-c2cn(Cc3ncc(N4CCCC(NCC5CCC5)C4)s3)nn2)c2cn[nH]c2c1 (stereo not drawn) [Compound 049, N-(cyclobutylmethyl)-1-(2-((4-(6-methoxy-1H-indazol-4-yl)-1H-1,2,3-triazol-1-yl)methyl)thiazol-5-yl)piperidin-3-amine]	≤ 50
COc1cncc(-c2cn(Cc3ccc(N4CCCC(C)(NCC5CCC5)C4)nn3)nn2)c1 (stereo not drawn) [Compound 053, N-(cyclobutylmethyl)-1-(6-((4-(5-methoxypyridin-3-yl)-1H-1,2,3-triazol-1-yl)methyl)pyridazin-3-yl)-3-methylpiperidin-3-amine]	50 to 500
COc1cc(-c2cn(Cn3cc(F)c(N4CCCC(NCC5CCC5)C4)cc3=O)nn2)c2cn[nH]c2c1 (stereo not drawn) [Compound 054, 4-(3-((cyclobutylmethyl)amino)piperidin-1-yl)-5-fluoro-1-((4-(6-methoxy-1H-indazol-4-yl)-1H-1,2,3-triazol-1-yl)methyl)pyridin-2(1H)-one]	500 to 3500

SMILES	IC50 [nM]
COc1cncc(-c2cn(Cc3ccc(N4CCC(F)(F)C(NCC5CCC5)C4)nn3)nn2)c1 (stereo not drawn) [Compound 059, N-(cyclobutylmethyl)-4,4-difluoro-1-(6-((4-(5-methoxypyridin-3-yl)-1H-1,2,3-triazol-1-yl)methyl)pyridazin-3-yl)piperidin-3-amine]	50 to 500
O=C(NCc1ccc(N2CCC[C@@H](NCC3CCC3)C2)nc1)c1cc(=O)n2ccccc2n1 [Compound 061, (R)-N-((6-(3-((cyclobutylmethyl)amino)piperidin-1-yl)pyridin-3-yl)methyl)-4-oxo-4H-pyrido[1,2-a]pyrimidine-2-carboxamide]	≤ 50
COc1cncc(-c2cn(Cn3ncc(N4CCC[C@@H](NCC5CCC5)C4)cc3=O)nn2)c1 [Compound 062, (R)-5-(3-((cyclobutylmethyl)amino)piperidin-1-yl)-2-((4-(5-methoxypyridin-3-yl)-1H-1,2,3-triazol-1-yl)methyl)pyridazin-3(2H)-one]	≤ 50
COc1cncc(-c2nnc(Cc3ccc(N4CCC[C@@H](NCC5CCC5)C4)nn3)[nH]2)c1 [Compound 069, (R)-N-(cyclobutylmethyl)-1-(6-((5-(5-methoxypyridin-3-yl)-4H-1,2,4-triazol-3-yl)methyl)pyridazin-3-yl)piperidin-3-amine]	≤ 50
O=C(NCc1ccc(N2CCC[C@@H](NCC3CCC3)C2)cc1)c1cc(=O)n2ccccc2n1 [Compound 070, (R)-N-(4-(3-((cyclobutylmethyl)amino)piperidin-1-yl)benzyl)-4-oxo-4H-pyrido[1,2-a]pyrimidine-2-carboxamide]	≤ 50
CC(NC(=O)c1cc(=O)n2ccccc2n1)c1ccc(N2CCC[C@@H](NCC3CCC3)C2)nc1 (stereo partly drawn) [Compound 072, N-(1-(6-((R)-3-((cyclobutylmethyl)amino)piperidin-1-yl)pyridin-3-yl)ethyl)-4-oxo-4H-pyrido[1,2-a]pyrimidine-2-carboxamide]	50 to 500
C[C@H](NC(=O)c1cc(=O)n2ccccc2n1)c1ccc(N2CCC[C@@H](NCC3CCC3)C2)cc1 [Compound 074, N-((S)-1-(4-((R)-3-((cyclobutylmethyl)amino)piperidin-1-yl)phenyl)ethyl)-4-oxo-4H-pyrido[1,2-a]pyrimidine-2-carboxamide]	≤ 50
CC(n1cc(-c2cccnc2)nn1)n1ccc(N2CCC[C@@H](NCC3CCC3)C2)cc1=O (stereo partly drawn) [Compound 079, 4-((R)-3-((cyclobutylmethyl)amino)piperidin-1-yl)-1-(1-(4-(pyridin-3-yl)-1H-1,2,3-triazol-1-yl)ethyl)pyridin-2(1H)-one]	≤ 50
CC(c1ccc(N2CCC[C@@H](NCC3CCC3)C2)nn1)n1cc(-c2cc(=O)n3ccccc3n2)nn1 (stereo partly drawn) [Compound 089, 2-(1-(1-(6-((R)-3-((cyclobutylmethyl)amino)piperidin-1-yl)pyridazin-3-yl)ethyl)-1H-1,2,3-triazol-4-yl)-4H-pyrido[1,2-a]pyrimidin-4-one]	≤ 50
CC(c1ccc(N2CCC[C@@H](NCC3CCC3)C2)nn1)n1cc(-c2cc(=O)n3cc(Cl)ccc3n2)nn1 (stereo partly drawn) [Compound 090, 7-chloro-2-(1-(1-(6-((R)-3-((cyclobutylmethyl)amino)piperidin-1-yl)pyridazin-3-yl)ethyl)-1H-1,2,3-triazol-4-yl)-4H-pyrido[1,2-a]pyrimidin-4-one]	≤ 50
CC(n1cc(-c2cncc(F)c2)nn1)n1ccc(N2CCC[C@@H](NCC3CCC3)C2)cc1=O (stereo partly drawn) [Compound 094, 4-((R)-3-((cyclobutylmethyl)amino)piperidin-1-yl)-1-(1-(4-(5-fluoropyridin-3-yl)-1H-1,2,3-triazol-1-yl)ethyl)pyridin-2(1H)-one]	≤ 50
CC(NC(=O)c1cc(=O)n2ccccc2n1)c1ccc(N2CCC[C@@H](NCC3CCC3)C2)cc1 (stereo partly drawn) [Compound 100, N-(1-(4-((R)-3-((cyclobutylmethyl)amino)piperidin-1-yl)phenyl)ethyl)-4-oxo-4H-pyrido[1,2-a]pyrimidine-2-carboxamide]	50 to 500
COc1cncc(-c2cn(Cc3ccc(N4CCCCC(NCC5CCC5)C4)nn3)nn2)c1 (stereo not drawn) [Compound 101, N-(cyclobutylmethyl)-1-(6-((4-(5-methoxypyridin-3-yl)-1H-1,2,3-triazol-1-yl)methyl)pyridazin-3-yl)azepan-3-amine]	50 to 500
CC(c1ccc(N2CCC[C@@H](NCC3CCC3)C2)cc1)n1cc(-c2cc(=O)n3ccccc3n2)nn1 (stereo partly drawn) [Compound 102]	≤ 50
COc1cc(-c2cn(C(C)n3ccc(N4CCC[C@@H](NCC5CCC5)C4)cc3=O)nn2)cnc1C (stereo partly drawn) [Compound 104, 4-((R)-3-((cyclobutylmethyl)amino)piperidin-1-yl)-1-(1-(4-(5-methoxy-6-methylpyridin-3-yl)-1H-1,2,3-triazol-1-yl)ethyl)pyridin-2(1H)-one]	50 to 500
COc1cncc(-c2cn(C(C)n3ccc(N4CCC[C@@H](NCC5CCC5)C4)cc3=O)nn2)c1C (stereo partly drawn) [Compound 108, 4-((R)-3-((cyclobutylmethyl)amino)piperidin-1-yl)-1-(1-(4-(5-methoxy-4-methylpyridin-3-yl)-1H-1,2,3-triazol-1-yl)ethyl)pyridin-2(1H)-one]	≤ 50
